From ChEMBL document CHEMBL2157909, “Design, synthesis, spectral and biological evaluation of novel 1-allyl substituted 2,6-diphenylpiperidin-4-ones and its derivatives of oximes/oxime ethers” (2012)
In brackets after ≈: the same amount, converted by molar mass.

Experiments:
Escherichia coli = assay: Antibacterial activity against Escherichia coli ATCC 26032 after 24 hrs by two fold serial dilution method; type: functional; settings: ATCC 26032, 24 h
Aspergillus niger = assay: Antifungal activity against Aspergillus niger ATCC 635 after 72 to 96 hrs by two fold serial dilution method; type: functional
Rhizopus = assay: Antifungal activity against Rhizopus sp. ATCC 2842 after 72 to 96 hrs by two fold serial dilution method; type: functional
Aspergillus flavus = assay: Antifungal activity against Aspergillus flavus ATCC 525 after 72 to 96 hrs by two fold serial dilution method; type: functional
Pseudomonas = assay: Antibacterial activity against Pseudomonas ATCC 27853 after 24 hrs by two fold serial dilution method; type: functional; settings: ATCC 27853, 24 h
Staphylococcus aureus = assay: Antibacterial activity against Staphylococcus aureus ATCC 25930 after 24 hrs by two fold serial dilution method; type: functional; settings: ATCC 25930, 24 h
[1] = Ratio of MIC for Bacillus subtilis ATCC 530 to MIC for Salmonella typhi ATCC 25021; type: functional
Fusarium oxysporum = assay: Antifungal activity against Fusarium oxysporum ATCC 48112 after 72 to 96 hrs by two fold serial dilution method; type: functional
Penicillium chrysogenum = assay: Antifungal activity against Penicillium chrysogenum ATCC 28089 after 72 to 96 hrs by two fold serial dilution method; type: functional
[2] = Ratio of MIC for Pseudomonas ATCC 27853 to MIC for Salmonella typhi ATCC 25021; type: functional
Bacillus subtilis = assay: Antibacterial activity against Bacillus subtilis ATCC 530 after 24 hrs by two fold serial dilution method; type: functional; settings: ATCC 530, 24 h
Salmonella typhi = assay: Antibacterial activity against Salmonella typhi ATCC 25021 after 24 hrs by two fold serial dilution method; type: functional, Salmonella enterica subsp. enterica serovar Typhi; settings: Salmonella enterica, ATCC 25021, 24 h

## C=CCN1[C@H](c2ccc(C)cc2)CC(=O)[C@@H](C)[C@@H]1c1ccc(C)cc1 (relative stereo)
Escherichia coli
  MIC: 25 µg/mL (≈ 75 µM)
Aspergillus niger
  MIC: 50 µg/mL (≈ 150 µM)
Rhizopus
  MIC: 6.25 µg/mL (≈ 18.7 µM)
Aspergillus flavus
  MIC: 50 µg/mL (≈ 150 µM)
Pseudomonas
  MIC: 50 µg/mL (≈ 150 µM)
Staphylococcus aureus
  MIC: 50 µg/mL (≈ 150 µM)
[1]
  Ratio: 3
Fusarium oxysporum
  MIC: 25 µg/mL (≈ 75 µM)
Penicillium chrysogenum
  MIC: 25 µg/mL (≈ 75 µM)
[2]
  Ratio: 2
Bacillus subtilis
  MIC: 100 µg/mL (≈ 300 µM)
Salmonella typhi
  MIC: 12.5 µg/mL (≈ 37.5 µM)
